Measured values published in ChEMBL document CHEMBL3739277, “Design, synthesis, and antibacterial evaluation of novel azolylthioether quinolones as MRSA DNA intercalators” (2015).
In brackets after ≈: the same amount, converted by molar mass.

Test system: Saccharomyces cerevisiae
Test: Antifungal activity against Saccharomyces cerevisiae ATCC9763 assessed as growth inhibition incubated at 35 degC for 24 hrs by micro broth dilution method
Format: functional
Settings: ATCC9763, 24 h

Compound	MIC80 [µg/mL]
Cn1ccnc1SCC(O)CN1CCN(c2cc3c(cc2F)c(=O)c(C(=O)O)cn3C2CC2)CC1 (stereo not given)	32 (≈ 63.8 µM)
CCn1cc(C(=O)O)c(=O)c2cc(F)c(N3CCN(CC(O)CSc4nccn4C)CC3)cc21 (stereo not given)	128 (≈ 261 µM)
O=C(O)c1cn(C2CC2)c2cc(N3CCN(CC(O)CSc4ncn(Cc5ccc(Cl)c(Cl)c5)n4)CC3)c(F)cc2c1=O (stereo not given)	32 (≈ 49.4 µM)
Cn1nnnc1SCC(O)CNC1CCN(c2c(F)cc3c(=O)c(C(=O)O)cn(C4CC4)c3c2Cl)C1 (stereo not given)	1 (≈ 1.86 µM)
O=C(O)c1cn(C2CC2)c2cc(N3CCN(CC4CO4)CC3)c(F)cc2c1=O (stereo not given)	1 (≈ 2.58 µM)

Test system: Cyberlindnera jadinii
Test: Antifungal activity against Candida utilis ATCC9950 assessed as growth inhibition incubated at 35 degC for 24 hrs by micro broth dilution method
Format: functional
Settings: Williopsis jadinii, ATCC9950, 24 h

Compound	MIC80 [µg/mL]
Cn1ccnc1SCC(O)CN1CCN(c2cc3c(cc2F)c(=O)c(C(=O)O)cn3C2CC2)CC1 (stereo not given)	128 (≈ 255 µM)
CCn1cc(C(=O)O)c(=O)c2cc(F)c(N3CCN(CC(O)CSc4nccn4C)CC3)cc21 (stereo not given)	64 (≈ 131 µM)
O=C(O)c1cn(C2CC2)c2cc(N3CCN(CC(O)CSc4ncn(Cc5ccc(Cl)c(Cl)c5)n4)CC3)c(F)cc2c1=O (stereo not given)	2 (≈ 3.09 µM)
Cn1nnnc1SCC(O)CNC1CCN(c2c(F)cc3c(=O)c(C(=O)O)cn(C4CC4)c3c2Cl)C1 (stereo not given)	128 (≈ 238 µM)
O=C(O)c1cn(C2CC2)c2cc(N3CCN(CC4CO4)CC3)c(F)cc2c1=O (stereo not given)	2 (≈ 5.16 µM)

Test system: Candida albicans
Test: Antifungal activity against Candida albicans ATCC10231 assessed as growth inhibition incubated at 35 degC for 24 hrs by micro broth dilution method
Format: functional
Settings: ATCC10231, 24 h

Compound	MIC80 [µg/mL]
Cn1ccnc1SCC(O)CN1CCN(c2cc3c(cc2F)c(=O)c(C(=O)O)cn3C2CC2)CC1 (stereo not given)	4 (≈ 7.97 µM)
CCn1cc(C(=O)O)c(=O)c2cc(F)c(N3CCN(CC(O)CSc4nccn4C)CC3)cc21 (stereo not given)	16 (≈ 32.7 µM)
O=C(O)c1cn(C2CC2)c2cc(N3CCN(CC(O)CSc4ncn(Cc5ccc(Cl)c(Cl)c5)n4)CC3)c(F)cc2c1=O (stereo not given)	16 (≈ 24.7 µM)
Cn1nnnc1SCC(O)CNC1CCN(c2c(F)cc3c(=O)c(C(=O)O)cn(C4CC4)c3c2Cl)C1 (stereo not given)	2 (≈ 3.72 µM)
O=C(O)c1cn(C2CC2)c2cc(N3CCN(CC4CO4)CC3)c(F)cc2c1=O (stereo not given)	2 (≈ 5.16 µM)

Test system: not listed separately
Test: Antibacterial activity against Eberthella typhosa ATCC14028 assessed as growth inhibition incubated at 37 degC for 24 hrs by micro broth dilution method
Format: functional
Settings: ATCC14028, 24 h

Compound	MIC [µg/mL]
Cn1ccnc1SCC(O)CN1CCN(c2cc3c(cc2F)c(=O)c(C(=O)O)cn3C2CC2)CC1 (stereo not given)	1 (≈ 1.99 µM)
CCn1cc(C(=O)O)c(=O)c2cc(F)c(N3CCN(CC(O)CSc4nccn4C)CC3)cc21 (stereo not given)	16 (≈ 32.7 µM)
O=C(O)c1cn(C2CC2)c2cc(N3CCN(CC(O)CSc4ncn(Cc5ccc(Cl)c(Cl)c5)n4)CC3)c(F)cc2c1=O (stereo not given)	0.5 (≈ 0.772 µM)
Cn1nnnc1SCC(O)CNC1CCN(c2c(F)cc3c(=O)c(C(=O)O)cn(C4CC4)c3c2Cl)C1 (stereo not given)	1 (≈ 1.86 µM)
O=C(O)c1cn(C2CC2)c2cc(N3CCN(CC4CO4)CC3)c(F)cc2c1=O (stereo not given)	2 (≈ 5.16 µM)

Test system: not listed separately
Test: Antifungal activity against Candida mycoderma ATCC9888 assessed as growth inhibition incubated at 35 degC for 24 hrs by micro broth dilution method
Format: functional
Settings: Kregervanrija fluxuum

Compound	MIC80 [µg/mL]
Cn1ccnc1SCC(O)CN1CCN(c2cc3c(cc2F)c(=O)c(C(=O)O)cn3C2CC2)CC1 (stereo not given)	16 (≈ 31.9 µM)
CCn1cc(C(=O)O)c(=O)c2cc(F)c(N3CCN(CC(O)CSc4nccn4C)CC3)cc21 (stereo not given)	64 (≈ 131 µM)
O=C(O)c1cn(C2CC2)c2cc(N3CCN(CC(O)CSc4ncn(Cc5ccc(Cl)c(Cl)c5)n4)CC3)c(F)cc2c1=O (stereo not given)	8 (≈ 12.4 µM)
Cn1nnnc1SCC(O)CNC1CCN(c2c(F)cc3c(=O)c(C(=O)O)cn(C4CC4)c3c2Cl)C1 (stereo not given)	1 (≈ 1.86 µM)
O=C(O)c1cn(C2CC2)c2cc(N3CCN(CC4CO4)CC3)c(F)cc2c1=O (stereo not given)	1 (≈ 2.58 µM)

Test system: Aspergillus flavus
Test: Antifungal activity against Aspergillus flavus ATCC204304 assessed as growth inhibition incubated at 35 degC for 24 hrs by micro broth dilution method
Format: functional
Settings: ATCC204304, 24 h

Compound	MIC80 [µg/mL]
Cn1ccnc1SCC(O)CN1CCN(c2cc3c(cc2F)c(=O)c(C(=O)O)cn3C2CC2)CC1 (stereo not given)	64 (≈ 128 µM)
CCn1cc(C(=O)O)c(=O)c2cc(F)c(N3CCN(CC(O)CSc4nccn4C)CC3)cc21 (stereo not given)	256 (≈ 523 µM)
O=C(O)c1cn(C2CC2)c2cc(N3CCN(CC(O)CSc4ncn(Cc5ccc(Cl)c(Cl)c5)n4)CC3)c(F)cc2c1=O (stereo not given)	16 (≈ 24.7 µM)
Cn1nnnc1SCC(O)CNC1CCN(c2c(F)cc3c(=O)c(C(=O)O)cn(C4CC4)c3c2Cl)C1 (stereo not given)	1 (≈ 1.86 µM)
O=C(O)c1cn(C2CC2)c2cc(N3CCN(CC4CO4)CC3)c(F)cc2c1=O (stereo not given)	1 (≈ 2.58 µM)

Test system: Escherichia coli
Test: Antibacterial activity against Escherichia coli JM109 assessed as growth inhibition incubated at 37 degC for 24 hrs by micro broth dilution method
Format: functional
Settings: JM109, 24 h

Compound	MIC [µg/mL]
Cn1ccnc1SCC(O)CN1CCN(c2cc3c(cc2F)c(=O)c(C(=O)O)cn3C2CC2)CC1 (stereo not given)	8 (≈ 15.9 µM)
CCn1cc(C(=O)O)c(=O)c2cc(F)c(N3CCN(CC(O)CSc4nccn4C)CC3)cc21 (stereo not given)	8 (≈ 16.3 µM)
O=C(O)c1cn(C2CC2)c2cc(N3CCN(CC(O)CSc4ncn(Cc5ccc(Cl)c(Cl)c5)n4)CC3)c(F)cc2c1=O (stereo not given)	1 (≈ 1.54 µM)
Cn1nnnc1SCC(O)CNC1CCN(c2c(F)cc3c(=O)c(C(=O)O)cn(C4CC4)c3c2Cl)C1 (stereo not given)	1 (≈ 1.86 µM)
O=C(O)c1cn(C2CC2)c2cc(N3CCN(CC4CO4)CC3)c(F)cc2c1=O (stereo not given)	1 (≈ 2.58 µM)

Test system: Staphylococcus aureus
Test: Antibacterial activity against methicillin resistant Staphylococcus aureus N315 assessed as growth inhibition incubated at 37 degC for 24 hrs by micro broth dilution method
Format: functional
Settings: N315, 24 h

Compound	MIC [µg/mL]
Cn1ccnc1SCC(O)CN1CCN(c2cc3c(cc2F)c(=O)c(C(=O)O)cn3C2CC2)CC1 (stereo not given)	2 (≈ 3.99 µM)
CCn1cc(C(=O)O)c(=O)c2cc(F)c(N3CCN(CC(O)CSc4nccn4C)CC3)cc21 (stereo not given)	64 (≈ 131 µM)
O=C(O)c1cn(C2CC2)c2cc(N3CCN(CC(O)CSc4ncn(Cc5ccc(Cl)c(Cl)c5)n4)CC3)c(F)cc2c1=O (stereo not given)	1 (≈ 1.54 µM)
Cn1nnnc1SCC(O)CNC1CCN(c2c(F)cc3c(=O)c(C(=O)O)cn(C4CC4)c3c2Cl)C1 (stereo not given)	2 (≈ 3.72 µM)
O=C(O)c1cn(C2CC2)c2cc(N3CCN(CC4CO4)CC3)c(F)cc2c1=O (stereo not given)	1 (≈ 2.58 µM)

Test system: Staphylococcus aureus
Test: Antibacterial activity against Staphylococcus aureus ATCC25923 assessed as growth inhibition incubated at 37 degC for 24 hrs by micro broth dilution method
Format: functional
Settings: ATCC25923, 24 h

Compound	MIC [µg/mL]
Cn1ccnc1SCC(O)CN1CCN(c2cc3c(cc2F)c(=O)c(C(=O)O)cn3C2CC2)CC1 (stereo not given)	2 (≈ 3.99 µM)
CCn1cc(C(=O)O)c(=O)c2cc(F)c(N3CCN(CC(O)CSc4nccn4C)CC3)cc21 (stereo not given)	16 (≈ 32.7 µM)
O=C(O)c1cn(C2CC2)c2cc(N3CCN(CC(O)CSc4ncn(Cc5ccc(Cl)c(Cl)c5)n4)CC3)c(F)cc2c1=O (stereo not given)	0.5 (≈ 0.772 µM)
Cn1nnnc1SCC(O)CNC1CCN(c2c(F)cc3c(=O)c(C(=O)O)cn(C4CC4)c3c2Cl)C1 (stereo not given)	2 (≈ 3.72 µM)
O=C(O)c1cn(C2CC2)c2cc(N3CCN(CC4CO4)CC3)c(F)cc2c1=O (stereo not given)	4 (≈ 10.3 µM)

Test system: Micrococcus luteus
Test: Antibacterial activity against Micrococcus luteus ATCC4698 assessed as growth inhibition incubated at 37 degC for 24 hrs by micro broth dilution method
Format: functional
Settings: ATCC4698, 24 h

Compound	MIC [µg/mL]
Cn1ccnc1SCC(O)CN1CCN(c2cc3c(cc2F)c(=O)c(C(=O)O)cn3C2CC2)CC1 (stereo not given)	4 (≈ 7.97 µM)
CCn1cc(C(=O)O)c(=O)c2cc(F)c(N3CCN(CC(O)CSc4nccn4C)CC3)cc21 (stereo not given)	32 (≈ 65.4 µM)
O=C(O)c1cn(C2CC2)c2cc(N3CCN(CC(O)CSc4ncn(Cc5ccc(Cl)c(Cl)c5)n4)CC3)c(F)cc2c1=O (stereo not given)	1 (≈ 1.54 µM)
Cn1nnnc1SCC(O)CNC1CCN(c2c(F)cc3c(=O)c(C(=O)O)cn(C4CC4)c3c2Cl)C1 (stereo not given)	1 (≈ 1.86 µM)
O=C(O)c1cn(C2CC2)c2cc(N3CCN(CC4CO4)CC3)c(F)cc2c1=O (stereo not given)	2 (≈ 5.16 µM)

Test system: Bacillus subtilis
Test: Antibacterial activity against Bacillus subtilis ATCC6633 assessed as growth inhibition incubated at 37 degC for 24 hrs by micro broth dilution method
Format: functional
Settings: ATCC6633, 24 h

Compound	MIC [µg/mL]
Cn1ccnc1SCC(O)CN1CCN(c2cc3c(cc2F)c(=O)c(C(=O)O)cn3C2CC2)CC1 (stereo not given)	4 (≈ 7.97 µM)
CCn1cc(C(=O)O)c(=O)c2cc(F)c(N3CCN(CC(O)CSc4nccn4C)CC3)cc21 (stereo not given)	16 (≈ 32.7 µM)
O=C(O)c1cn(C2CC2)c2cc(N3CCN(CC(O)CSc4ncn(Cc5ccc(Cl)c(Cl)c5)n4)CC3)c(F)cc2c1=O (stereo not given)	0.5 (≈ 0.772 µM)
Cn1nnnc1SCC(O)CNC1CCN(c2c(F)cc3c(=O)c(C(=O)O)cn(C4CC4)c3c2Cl)C1 (stereo not given)	1 (≈ 1.86 µM)
O=C(O)c1cn(C2CC2)c2cc(N3CCN(CC4CO4)CC3)c(F)cc2c1=O (stereo not given)	8 (≈ 20.6 µM)

Test system: Pseudomonas aeruginosa
Test: Antibacterial activity against Pseudomonas aeruginosa ATCC27853 assessed as growth inhibition incubated at 37 degC for 24 hrs by micro broth dilution method
Format: functional
Settings: ATCC27853, 24 h

Compound	MIC [µg/mL]
Cn1ccnc1SCC(O)CN1CCN(c2cc3c(cc2F)c(=O)c(C(=O)O)cn3C2CC2)CC1 (stereo not given)	8 (≈ 15.9 µM)
CCn1cc(C(=O)O)c(=O)c2cc(F)c(N3CCN(CC(O)CSc4nccn4C)CC3)cc21 (stereo not given)	64 (≈ 131 µM)
O=C(O)c1cn(C2CC2)c2cc(N3CCN(CC(O)CSc4ncn(Cc5ccc(Cl)c(Cl)c5)n4)CC3)c(F)cc2c1=O (stereo not given)	2 (≈ 3.09 µM)
Cn1nnnc1SCC(O)CNC1CCN(c2c(F)cc3c(=O)c(C(=O)O)cn(C4CC4)c3c2Cl)C1 (stereo not given)	1 (≈ 1.86 µM)
O=C(O)c1cn(C2CC2)c2cc(N3CCN(CC4CO4)CC3)c(F)cc2c1=O (stereo not given)	2 (≈ 5.16 µM)

Test system: not listed separately
Test: Antibacterial activity against Bacillus proteus ATCC13315 assessed as growth inhibition incubated at 37 degC for 24 hrs by micro broth dilution method
Format: functional
Settings: ATCC13315, 24 h

Compound	MIC [µg/mL]
Cn1ccnc1SCC(O)CN1CCN(c2cc3c(cc2F)c(=O)c(C(=O)O)cn3C2CC2)CC1 (stereo not given)	2 (≈ 3.99 µM)
CCn1cc(C(=O)O)c(=O)c2cc(F)c(N3CCN(CC(O)CSc4nccn4C)CC3)cc21 (stereo not given)	64 (≈ 131 µM)
O=C(O)c1cn(C2CC2)c2cc(N3CCN(CC(O)CSc4ncn(Cc5ccc(Cl)c(Cl)c5)n4)CC3)c(F)cc2c1=O (stereo not given)	0.5 (≈ 0.772 µM)
Cn1nnnc1SCC(O)CNC1CCN(c2c(F)cc3c(=O)c(C(=O)O)cn(C4CC4)c3c2Cl)C1 (stereo not given)	1 (≈ 1.86 µM)
O=C(O)c1cn(C2CC2)c2cc(N3CCN(CC4CO4)CC3)c(F)cc2c1=O (stereo not given)	4 (≈ 10.3 µM)
